From US6734198B1, “Nematicidal trifluorobutenes” (Nihon Bayer Agrochem K.K., priority 1999, dated 2004)

The compounds below were run on Meloidogyne incognita (assay: Test against Meloidogyne spp., soil pot test (tomato)). Settings: 10 ppm active ingredient in soil contaminated with Meloidogyne incognita; tomato (Kurihara) in pots, greenhouse, 4 weeks; from root knot index.
Assay type: in vivo
Method: Test Against Meloidogyne spp. Soil pot Test
Preparation of Test Agent:
1 Part of the active compound is impregnated to 99 parts of pumice to obtain fine granules.
The test agent prepared as mentioned above was added to soil contaminated with Meloidogyne incognita to a chemical concentration of 10 ppm and homogeneously mixed by stirring. A pot (1/5000 are) was filled with the soil. About 20 seeds of tomato (variety: Kurihara) were sown per pot. After cultivation in a greenhouse for 4 weeks, they were carefully pulled out not to damage the roots and the root knot index and the controlling effect were determined as follows.
Degree of damage 0: No knots were formed (Complete control).
1: A few knots were formed.
2: Knots were formed to a medium extent.
3: Knots were formed to an intense extent.
4: Knots were formed to the most intense extent (which corresponds to non-treatment). [formula]
The controlling effect of the compounds tested can then be evaluated according to the following equation: [formula]
The evaluation of the controlling effects of the compounds according to the present invention was done on the basis of the values of the controlling effect which can be obtained in the above-mentioned way and were connected with the following standards:
a: Controlling effect 100-71%
b: Controlling effect 70-50%
c: Controlling effect less than 50%

| Compound | Evaluation of controlling effect |
| --- | --- |
| FC(F)=C(F)CCSc1ncc(Cl)s1 [Example 1, 5-chloro-2-(3,4,4-trifluoro-3-butenylthio)thiazole] | a (Controlling effect 100-71%) |
| [O-][S+](CCC(F)=C(F)F)c1ncc(Cl)s1 (stereo not drawn) [Example 2, 5-chloro-2-(3,4,4-trifluoro-3-butenylsulfinyl)thiazole] | a (Controlling effect 100-71%) |
| O=S(=O)(CCC(F)=C(F)F)c1ncc(Cl)s1 [Example 3, 5-chloro-2-(3,4,4-trifluoro-3-butenylsulfonyl)thiazole] | a (Controlling effect 100-71%) |
